Laboratory results published in patent EP4316461A1, “A PRESERVATIVE COMPOSITION” (BRAIN Biotech AG, priority 2022, dated 2024).

Tests used:
Type in all cases: cell-based
Penicillium expansum = assay: Antimicrobial activity (MIC); conditions: Strain ID DSM 62841; potato dextrose broth pH 3.8
Malassezia furfur = assay: Antimicrobial activity (MIC); conditions: Strain ID DSM 6170; potato dextrose broth pH 3.8
Pseudomonas aeruginosa = assay: Antimicrobial activity (MIC); conditions: Strain ID DSM 1117; potato dextrose broth pH 3.8
Leuconostoc lactis = assay: Antimicrobial activity (MIC); conditions: Strain ID DSM 20202; potato dextrose broth pH 3.8
Listeria monocytogenes = assay: Antimicrobial activity (MIC); conditions: Strain ID DSM 20600; potato dextrose broth pH 3.8
[1] = tested on: Fusobacterium nucleatum subsp. vincentii; assay: Antimicrobial activity (MIC); conditions: Strain ID DSM 19507; potato dextrose broth pH 3.8
Enterobacter cloacae = assay: Antimicrobial activity (MIC); conditions: Strain ID DSM 6234; potato dextrose broth pH 3.8
Cutibacterium acnes = assay: Antimicrobial activity (MIC); conditions: Strain ID DSM 1897; potato dextrose broth pH 3.8
Enterococcus faecalis = assay: Antimicrobial activity (MIC); conditions: Strain ID ATCC 7080; potato dextrose broth pH 3.8
[2] = tested on: Cladosporium cladosporioides; assay: Antimicrobial activity (MIC); conditions: Strain ID DSM19653; potato dextrose broth pH 3.8
[3] = tested on: Leuconostoc mesenteroides ssp. mesenteroides; assay: Antimicrobial activity (MIC); conditions: Strain ID DSM 20343; potato dextrose broth pH 3.8
[4] = tested on: Pasteurella multocida ssp. multocida; assay: Antimicrobial activity (MIC); conditions: Strain ID DSM 16031; potato dextrose broth pH 3.8
Porphyromonas gingivalis = assay: Antimicrobial activity (MIC); conditions: Strain ID DSM 20709; potato dextrose broth pH 3.8
Zygosaccharomyces bailii = assay: Antimicrobial activity (MIC); conditions: Strain ID DSM 70834; potato dextrose broth pH 3.8
Saccharomyces cerevisiae = assay: Antimicrobial activity (MIC); conditions: Strain ID DSM 2548; potato dextrose broth pH 3.8
[5] = tested on: Brettanomyces naardenensis; assay: Antimicrobial activity (MIC); conditions: Strain ID CBS 6115; potato dextrose broth pH 3.8
[6] = tested on: Phanerochaete chrysosporium; assay: Antimicrobial activity (MIC); conditions: Strain ID DSM 1556; potato dextrose broth pH 3.8
Bacillus licheniformis = assay: Antimicrobial activity (MIC); conditions: Strain ID DSM 13; potato dextrose broth pH 3.8
Staphylococcus aureus = assay: Antimicrobial activity (MIC); conditions: Strain ID DSM 2569; potato dextrose broth pH 3.8
Aspergillus brasiliensis = assay: Antimicrobial activity (MIC); conditions: Strain ID DSM 1988; potato dextrose broth pH 3.8
Actinomyces viscosus = assay: Antimicrobial activity (MIC); conditions: Strain ID DSM43798; potato dextrose broth pH 3.8
Streptococcus mutans = assay: Antimicrobial activity (MIC); conditions: Strain ID DSM 20523; potato dextrose broth pH 3.8
Clostridium sporogenes = assay: Antimicrobial activity (MIC); conditions: Strain ID ATCC 19404; potato dextrose broth pH 3.8
[7] = tested on: Alicyclobacillus acidoterrestris; assay: Antimicrobial activity (MIC); conditions: Strain ID DSM 2498; potato dextrose broth pH 3.8
Candida parapsilosis = assay: Antimicrobial activity (MIC); conditions: Strain ID ATCC 20384; potato dextrose broth pH 3.8
Clostridium perfringens = assay: microbe, parasite or virus in culture; conditions: Strain ID DSM 756; potato dextrose broth pH 3.8
[8] = tested on: Gluconacetobacter liquefaciens; assay: Antimicrobial activity (MIC); conditions: Strain ID DSM 5603; potato dextrose broth pH 3.8
Botrytis cinerea = assay: Antimicrobial activity (MIC); conditions: Strain ID DSM 5145; potato dextrose broth pH 3.8
Bacillus cereus = assay: Antimicrobial activity (MIC); conditions: Strain ID DSM4490; potato dextrose broth pH 3.8
[9] = tested on: Lactobacillus paracasei ssp. paracasei; assay: Antimicrobial activity (MIC); conditions: Strain ID DSM 46331; potato dextrose broth pH 3.8
Alternaria alternata = assay: Antimicrobial activity (MIC); conditions: Strain ID DSM 12633; potato dextrose broth pH 3.8
Corynebacterium xerosis = assay: Antimicrobial activity (MIC); conditions: Strain ID DSM 20743; potato dextrose broth pH 3.8
Yarrowia lipolytica = assay: Antimicrobial activity (MIC); conditions: Strain ID DSM 70561; potato dextrose broth pH 3.8
Campylobacter jejuni = assay: Antimicrobial activity (MIC); conditions: Strain ID DSM 4688; potato dextrose broth pH 3.8
[10] = tested on: Salmonella enterica ssp. enterica Ser. typhimurium; assay: Antimicrobial activity (MIC); conditions: Strain ID DSM 17058; potato dextrose broth pH 3.8
Byssochlamys fulva = assay: Antimicrobial activity (MIC); conditions: Strain ID DSM 1808; potato dextrose broth pH 3.8
[11] = tested on: Lactobacillus plantarum ssp. plantarum; assay: Antimicrobial activity (MIC); conditions: Strain ID DSM 20174; potato dextrose broth pH 3.8
Candida albicans = assay: Antimicrobial activity (MIC); conditions: Strain ID ATCC10231; potato dextrose broth pH 3.8
Pseudomonas fluorescens = assay: Antimicrobial activity (MIC); conditions: Strain ID DSM50337; potato dextrose broth pH 3.8
Zygosaccharomyces rouxii = assay: Antimicrobial activity (MIC); conditions: Strain ID DSM 7525; potato dextrose broth pH 3.8

| Compound | Minimal Inhibitory Concentration (MIC) (Penicillium expansum) [µg/mL] | Minimal Inhibitory Concentration (MIC) (Malassezia furfur) [µg/mL] | Minimal Inhibitory Concentration (MIC) (Pseudomonas aeruginosa) [µg/mL] | Minimal Inhibitory Concentration (MIC) (Leuconostoc lactis) [µg/mL] | Minimal Inhibitory Concentration (MIC) (Listeria monocytogenes) [µg/mL] | Minimal Inhibitory Concentration (MIC) [1] [µg/mL] | Minimal Inhibitory Concentration (MIC) (Enterobacter cloacae) [µg/mL] | Minimal Inhibitory Concentration (MIC) (Cutibacterium acnes) [µg/mL] | Minimal Inhibitory Concentration (MIC) (Enterococcus faecalis) [µg/mL] | Minimal Inhibitory Concentration (MIC) [2] [µg/mL] | Minimal Inhibitory Concentration (MIC) [3] [µg/mL] | Minimal Inhibitory Concentration (MIC) [4] [µg/mL] | Minimal Inhibitory Concentration (MIC) (Porphyromonas gingivalis) [µg/mL] | Minimal Inhibitory Concentration (MIC) (Zygosaccharomyces bailii) [µg/mL] | Minimal Inhibitory Concentration (MIC) (Saccharomyces cerevisiae) [µg/mL] | Minimal Inhibitory Concentration (MIC) [5] [µg/mL] | Minimal Inhibitory Concentration (MIC) [6] [µg/mL] | Minimal Inhibitory Concentration (MIC) (Bacillus licheniformis) [µg/mL] | Minimal Inhibitory Concentration (MIC) (Staphylococcus aureus) [µg/mL] | Minimal Inhibitory Concentration (MIC) (Aspergillus brasiliensis) [µg/mL] | other results |
| --- | --- | --- | --- | --- | --- | --- | --- | --- | --- | --- | --- | --- | --- | --- | --- | --- | --- | --- | --- | --- | --- |
| C[C@@H]1O[C@@H](O[C@H]2[C@H](O[C@H]3CC[C@@]4(C)C(CC[C@]5(C)[C@@H]4CC=C4[C@H]6CC(C)(C)CC[C@]6(C(=O)O)CC[C@]45C)C3(C)CO)OC[C@H](O)[C@@H]2O[C@@H]2OC[C@H](O)[C@H](O)[C@H]2O)[C@H](O)[C@H](O)[C@H]1O (some centres unmarked) [B, Clemontanoside C [80666-65-5]] | >500 | 80 | > 80 | > 80 | > 80 | > 80 | > 80 | > 80 | > 80 | > 80 | > 80 | > 80 | > 80 | > 80 | > 80 | > 80 | > 80 | > 80 | > 80 | > 80 | Minimal Inhibitory Concentration (MIC) (Actinomyces viscosus): > 80 µg/mL; Minimal Inhibitory Concentration (MIC) (Streptococcus mutans): > 80 µg/mL; Minimal Inhibitory Concentration (MIC) (Clostridium sporogenes): 80 µg/mL; Minimal Inhibitory Concentration (MIC) [7]: 140 µg/mL; Minimal Inhibitory Concentration (MIC) (Candida parapsilosis): > 80 µg/mL; Minimal Inhibitory Concentration (MIC) (Clostridium perfringens): > 80 µg/mL; Minimal Inhibitory Concentration (MIC) [8]: 40 µg/mL; Minimal Inhibitory Concentration (MIC) (Botrytis cinerea): > 80 µg/mL; Minimal Inhibitory Concentration (MIC) (Bacillus cereus): > 80 µg/mL; Minimal Inhibitory Concentration (MIC) [9]: > 80 µg/mL; Minimal Inhibitory Concentration (MIC) (Alternaria alternata): > 80 µg/mL; Minimal Inhibitory Concentration (MIC) (Corynebacterium xerosis): > 80 µg/mL; Minimal Inhibitory Concentration (MIC) (Yarrowia lipolytica): > 80 µg/mL; Minimal Inhibitory Concentration (MIC) (Campylobacter jejuni): > 80 µg/mL; Minimal Inhibitory Concentration (MIC) [10]: > 80 µg/mL; Minimal Inhibitory Concentration (MIC) (Byssochlamys fulva): > 80 µg/mL; Minimal Inhibitory Concentration (MIC) [11]: 400 µg/mL; Minimal Inhibitory Concentration (MIC) (Candida albicans): > 80 µg/mL; Minimal Inhibitory Concentration (MIC) (Pseudomonas fluorescens): > 80 µg/mL; Minimal Inhibitory Concentration (MIC) (Zygosaccharomyces rouxii): 500 µg/mL |
| Transsylvanoside H [C, Transsylvanoside H [174423-50-8]] | >500 | > 80 | > 80 | 80 | > 80 | 80 | > 80 | > 80 | > 80 | > 80 | > 80 | > 80 | > 80 | > 80 | > 80 | > 80 | > 80 | > 80 | > 80 | > 80 | Minimal Inhibitory Concentration (MIC) (Actinomyces viscosus): > 80 µg/mL; Minimal Inhibitory Concentration (MIC) (Streptococcus mutans): > 80 µg/mL; Minimal Inhibitory Concentration (MIC) (Clostridium sporogenes): 80 µg/mL; Minimal Inhibitory Concentration (MIC) [7]: 40 µg/mL; Minimal Inhibitory Concentration (MIC) (Candida parapsilosis): > 80 µg/mL; Minimal Inhibitory Concentration (MIC) (Clostridium perfringens): > 80 µg/mL; Minimal Inhibitory Concentration (MIC) [8]: 140 µg/mL; Minimal Inhibitory Concentration (MIC) (Botrytis cinerea): > 80 µg/mL; Minimal Inhibitory Concentration (MIC) (Bacillus cereus): > 80 µg/mL; Minimal Inhibitory Concentration (MIC) [9]: > 80 µg/mL; Minimal Inhibitory Concentration (MIC) (Alternaria alternata): > 80 µg/mL; Minimal Inhibitory Concentration (MIC) (Corynebacterium xerosis): > 80 µg/mL; Minimal Inhibitory Concentration (MIC) (Yarrowia lipolytica): > 80 µg/mL; Minimal Inhibitory Concentration (MIC) (Campylobacter jejuni): > 80 µg/mL; Minimal Inhibitory Concentration (MIC) [10]: > 80 µg/mL; Minimal Inhibitory Concentration (MIC) (Byssochlamys fulva): > 80 µg/mL; Minimal Inhibitory Concentration (MIC) [11]: 40 µg/mL; Minimal Inhibitory Concentration (MIC) (Candida albicans): > 80 µg/mL; Minimal Inhibitory Concentration (MIC) (Pseudomonas fluorescens): > 80 µg/mL; Minimal Inhibitory Concentration (MIC) (Zygosaccharomyces rouxii): 500 µg/mL |
